# According to patent publication US12612410B2 (CHILDREN'S HOSPITAL MEDICAL CENTER, priority 2020, dated 2026):
# Test system: MOLM14 (D835Y) cells
# Experiment: Combination drug screening with Venetoclax in MOLM14 (D835Y) cells
# Type: cell-based
# Parameters: key to Sum Excess HSA: negative = synergy, positive = antagonism with Venetoclax; relative score
# Details: 10 × 10 dataset
# Description: Combination drug therapy has the potential to produce enhanced effects with lower side effects not obtained using either agent alone, or beyond the additive effect of the different concentrations of the two different agents. To determine whether enhanced effects are observed in different drug combinations in the setting of FLT3 resistance, combination drug screening was performed as previously described (Mathews-Griner, L. A. et al., Proc. Nat. Acad. Sci., 2014, 111:2439-2454; Lin, G. L. et al., Sci. Trans. Med., 2019, 11:eaaw0064). Briefly, 10 nL of compounds were acoustically dispensed into 1536-well white polystyrene tissue culture-treated plates with an Echo 550 acoustic liquid handler (Labcyte). MOLM14 (D835Y) Cells were then added to compound-containing plates at a density of 500-cells/well in 5 μL of medium. A 10-point custom concentration range was used for all listed drugs. Plates were incubated for 48 hours at standard incubator conditions covered by a stainless steel gasketed lid to prevent evaporation. 48 h post compound addition, 3 μL of Cell Titer Glo (Promega) were added to each well and plates were incubated at room temperature for 15 minutes with the stainless-steel lid in place. Luminescence readings were taken using a Viewlux imager (PerkinElmer) with a 2 second exposure time per plate.
# The sum excess HSA scores for Compounds 25, 31, 35, 50, 51, 80, 82, 97, 118, and 119 in Table 28 are used herein to quantitate drug interactions for enhanced pharmacological effects in the MOLM14 (D835Y) cell line. This is a FLT3-ITD cell line that harbors a FLT3 resistance mutation in the tyrosine kinase domain at position 835 (D835Y). More information on excess HSA scores can be found in Vlot, Anna H. C. et al., Drug Discovery Today, 2019, 24(12):2286-2298. […] However, different methodologies may yield different numerical scores, and different definitions of what constitutes a deviation from mere additivity vs true drug synergy. Table 28 summarizes the combination results of Compounds 25, 31, 35, 50, 51, 80, 82, 97, 118, and 119 with Venetoclax. A large negative sum excess HSA score indicates profound synergism with Venetoclax, whereas a positive excess HSA score indicates antagonism with Venetoclax in certain drug combinations.
# The degree to which combination therapy has to potential to produce enhanced effects with lower side effects not obtained using either agent alone, or beyond the additive effect of the different concentrations of the two different agents depends on the nature of the drugs used in the combination, and the specific doses/concentrations at which they are ultimately used in the therapeutic regimen. A negative excess sum HSA score illustrates that the drug combination is better than either drug alone (at the concentrations being studied), and the sum excess HSA score is a measurement of the overall deviation from additivity that is observed across the entire matrix of concentrations studied. […] However, the utility in certain drug combinations vs others should not be distinguished based on cutoffs between excess sum HSA scores, because the score itself is only a relative indicator that is completely dependent on experimental design and is not an absolute number. Furthermore, the concept of what constitutes clinically meaningful drug synergy is something that is still being debated, not only between pharmacologists and physicians, but amongst pharmacologists themselves. The data in Table 28 illustrate that the nature of the combined effect is dependent on the characteristics of each individual compound, as not every compound produced a synergistic interaction in combination with Venetoclax.
row,Structure (SMILES),Interaction with Venetoclax
1,"FC(F)c1cn2c(-c3cccc(N[C@H]4CNCC[C@@H]4F)n3)cnc2cn1 [Compound 25, 6-(6-(difluoromethyl)imidazo[1,2-a]pyrazin-3-yl)-N-((3S,4S)-4-fluoropiperidin-3-yl)pyridin-2-amine]",Synergistic
2,"CC(C)(O)c1cn2c(-c3nc(N[C@H]4CNCC[C@@H]4F)c(F)cc3F)cnc2cn1 [Compound 35, 2-(3-(3,5-difluoro-6-(((3S,4S)-4-fluoropiperidin-3-yl)amino)pyridin-2-yl)imidazo[1,2-a]pyrazin-6-yl)propan-2-ol]",Antagonistic

# Same assay, conditions: combination with Venetoclax, 10 × 10 dataset, 48 hours
row,Structure (SMILES),Sum Excess HSA
1,"CC(O)(c1cn2c(-c3cccc(N[C@H]4CNCC[C@@H]4F)n3)cnc2cn1)C(F)(F)F (single isomer, unassigned) [Compound 80]",−261.7
2,"CC(O)(c1cn2c(-c3cccc(N[C@H]4CNCC[C@@H]4F)n3)cnc2cn1)C(F)(F)F (single isomer, unassigned) [Compound 82]",−155.8
3,"FC(F)c1cn2c(-c3cccc(N[C@H]4CNCC[C@@H]4F)n3)cnc2cn1 [Compound 25, 6-(6-(difluoromethyl)imidazo[1,2-a]pyrazin-3-yl)-N-((3S,4S)-4-fluoropiperidin-3-yl)pyridin-2-amine]",−834.6
4,"CC(C)(O)c1cn2c(-c3cccc(N[C@H]4CNCC[C@@H]4F)n3)cnc2cn1 [Compound 31, 2-(3-(6-(((3S,4S)-4-fluoropiperidin-3-yl)amino)pyridin-2-yl)imidazo[1,2-a]pyrazin-6-yl)propan-2-ol]",−150.3956
5,"CC(C)(O)c1cn2c(-c3nc(N[C@H]4CNCC[C@@H]4F)c(F)cc3F)cnc2cn1 [Compound 35, 2-(3-(3,5-difluoro-6-(((3S,4S)-4-fluoropiperidin-3-yl)amino)pyridin-2-yl)imidazo[1,2-a]pyrazin-6-yl)propan-2-ol]",386.4
6,"F[C@H]1CNC[C@@H]1Nc1cccc(-c2cnc3cnc(C4CC4)cn23)n1 [Compound 50, 6-(6-cyclopropylimidazo[1,2-a]pyrazin-3-yl)-N-((3S,4S)-4-fluoropyrrolidin-3-yl)pyridin-2-amine]",−552
7,"F[C@H]1CCNC[C@@H]1Nc1cccc(-c2cnc3cnc(C4CC4)cn23)n1 [Compound 51, 6-(6-cyclopropylimidazo[1,2-a]pyrazin-3-yl)-N-((3S,4S)-4-fluoropiperidin-3-yl)pyridin-2-amine]",−644.5
8,"O=S1(=O)CCCN1c1cn2c(-c3cccc(N[C@H]4CNCC[C@@H]4F)n3)cnc2cn1 [Compound 97, 2-(3-(6-(((3S,4S)-4-fluoropiperidin-3-yl)amino)pyridin-2-yl)imidazo[1,2-a]pyrazin-6-yl)isothiazolidine 1,1-dioxide]",−171.7
9,"O=C1NCCN1c1cn2c(-c3cccc(N[C@H]4CNCC[C@@H]4F)n3)cnc2cn1 [Compound 118, 1-(3-(6-(((3S,4S)-4-fluoropiperidin-3-yl)amino)pyridin-2-yl)imidazo[1,2-a]pyrazin-6-yl)imidazolidin-2-one]",−550.9
10,"O=C1CCCN1c1cn2c(-c3cccc(N[C@H]4CNCC[C@@H]4F)n3)cnc2cn1 [Compound 119, 1-(3-(6-(((3S,4S)-4-fluoropiperidin-3-yl)amino)pyridin-2-yl)imidazo[1,2-a]pyrazin-6-yl)pyrrolidin-2-one]",−762
